US5446032A, “Imidazo (4,5-C) pyridine derivatives as PAF antagonists” (British Biotech Pharmaceuticals Limited, priority 1991, dated 1995)

Each molecule was assayed against T1, PAF receptor (human platelet plasma membrane) (Homo sapiens, UniProt P25105) (assay: Inhibition of [3H]-PAF receptor binding to human platelet plasma membrane). Conditions: [3H]-PAF 0.5 nM; 100 μg membrane fraction; 0° C.; 1 hour incubation; pH 7.0.
T1 construct: Platelet concentrates are obtained from a hospital blood bank; from tissue; host or cells: human platelets (concentrates from a hospital blood bank), lysed by freeze-thaw; membrane fraction
T1 sequence (P25105 whole entry): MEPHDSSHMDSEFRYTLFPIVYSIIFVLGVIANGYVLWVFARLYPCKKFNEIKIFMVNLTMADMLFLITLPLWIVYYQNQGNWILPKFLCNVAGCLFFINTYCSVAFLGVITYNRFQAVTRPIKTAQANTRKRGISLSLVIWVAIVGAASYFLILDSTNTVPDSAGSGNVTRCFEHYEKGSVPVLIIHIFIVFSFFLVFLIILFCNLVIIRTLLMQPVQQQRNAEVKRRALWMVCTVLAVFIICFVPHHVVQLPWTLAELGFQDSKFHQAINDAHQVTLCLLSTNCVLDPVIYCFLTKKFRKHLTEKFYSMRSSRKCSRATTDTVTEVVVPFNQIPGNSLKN
Description: Compounds of general formula I inhibit PAF-induced functions in both the cellular and tissue levels by changing the PAF binding to its specific receptor site. The ability of compounds of general formula I to inhibit the binding of PAF to its specific receptor binding site on human platelet plasma membranes was measured according to Example 24.
Inhibition of [^3 H]-PAF Receptor Binding
The inhibition of [^3 H]-PAF binding to human platelet plasma membrane by compounds of general formula I is determined by isotopic labelling and filtration techniques. Platelet concentrates are obtained from a hospital blood bank. These platelet concentrates (500-2500 ml.) are centrifuged at 800 rpm for 10 minutes in a SORVALL RC3B centrifuge to remove the red blood cells present. (The word SORVALL is a trade mark.) The supernatant is subsequently centrifuged at 3,000 rpm in a SORVALL RC3B centrifuge to pellet the platelets present. The platelet rich pellets are resuspended in a minimum volume of buffer (150 mM NaCl, 10 mM Tris, 2 mM EDTA, pH 7.5) and layered onto Ficoll-Paque gradients, 9 ml platelet concentrate to 2 ml Ficoll, and centrifuged at 1,900 rpm for 15 minutes in a SORVALL RT6000 centrifuge. This step removes the residual red blood cells and other nonspecific material such as lymphocytes from the preparation. The platelets which form a band between the plasma and the Ficoll are removed, resuspended in the above buffer and centrifuged at 3,000 rpm for 10 minutes in a SORVALL RT6000 centrifuge. The pelleted platelets are resuspended in buffer (10 mM Tris, 5 mM MgCl2, 2 mM EDTA, pH 7.0), snap freezed in liquid N2 and allowed to thaw slowly at room temperature in order to lyse the platelets. The latter step is repeated at least 3 times to ensure proper lysis. The lysed platelets are centrifuged at 3,000 rpm for 10 minutes in a SORVALL RT6000 centrifuge and resuspended in buffer. The latter step is repeated twice in order to remove any cytoplasmic proteins which may hydrolyse the platelet activating factor (PAF) receptor. The prepared platelet membranes may be stored at -70° C. After thawing the prepared membranes are centrifuged in a SORVALL RT6000 at 3,000 rpm for 10 minutes and resuspended in assay buffer.
The assay is conducted by preparing a series of Tris-buffered solutions of the selected antagonist of predetermined concentrations. Each of these solutions contained [^3 H]-PAF (0.5 nM; 1-O-[^3 H]octadecyl-2-acetyl-sn-glycero-3-phosphoryl choline with a specific activity of 132 Ci/mmol), […], a known amount of the test antagonist, and a sufficient amount of Tris-buffer solution (10 mM Tris, 5 mM MgC2, pH 7.0, 0.25% BSA) to make the final volume 1 ml. Incubation is initiated by the addition of 100 μg of the isolated membrane fraction to each of the above solutions at 0° C. Two control samples, one (C1) which contained all the ingredients described above except the antagonist and the other (C2) contains C1 plus a 1000-fold excess of unlabelled PAF, are also prepared and incubated simultaneously with the test samples. After 1 hour incubation, each solution is filtered rapidly under vacuo through a WHATMAN GF/C glass fibre filter in order to separate unbound PAF from bound PAF. (The word WHATMAN is a trade mark.) The residue in each case is rapidly washed 4 times with 5 ml cold (4° C.) Tris-buffer solution. Each washed residue is dried under vacuum on a sampling manifold and placed into vials containing 20 ml of OPTIPHASE MP scintillation fluid and the radioactivity counted in a liquid scintillation counter. (The word OPTIPHASE is a trade mark.) Defining the counts for total binding with antagonist from a test sample as "TBA"; the counts for total binding from the control sample C1 as "TB"; and the counts for nonspecific binding from the control sample C2 as "NSB"; the percent inhibition of each test antagonist can be determined by the following equation:
%Inhibition=[(TB-TBA)/SB]×100
where the specific binding SB=TB-NSB […]

| Structure (SMILES) | IC50 |
| --- | --- |
| CCOC(=O)CN([C@@H](CC(C)C)C(=O)OCC)S(=O)(=O)c1ccc(Cn2ccc3nc(C)nc-3c2)cc1 [Example 6, N-Ethoxycarbonylmethyl-N-4-(5H-2-methylimidazo[4,5-c]pyridylmethyl)phenylsulphonyl-L-leucine ethyl ester] | 10 nM |
| C=CCOC(=O)[C@H]([C@@H](C)CC)N(C)S(=O)(=O)c1ccc(Cn2ccc3nc(C)nc-3c2)cc1 [Example 4, N-Methyl-N-4-(5H-2-methylimidazo[4,5-c]pyridylmethyl)phenylsulphonyl-L-isoleucine allyl ester] | 10 nM |
| CCOC(=O)[C@H](CC(C)C)N(C)S(=O)(=O)c1ccc(Cn2ccc3nc(C)nc-3c2)c(Cl)c1 [Example 5, N-Methyl-N-4-(5H-2-methylimidazo[4,5-c]pyridylmethyl)-3-chlorophenylsulphonyl-L-leucine ethyl ester] | 2 nM |
| COC(C)C(C(C)C)N(C)S(=O)(=O)c1ccc(Cn2ccc3nc(C)nc-3c2)cc1 (stereo not shown) [Example 23, N-Methyl-N-4-(5H-2-methylimidazo[4,5-c]pyridylmethyl)phenylsulphonyl-2-methoxy-3-amino-4-methylpentane] | 15 nM |
| CCOC(=O)[C@H](CC(C)C)N(C)S(=O)(=O)c1ccc(Cn2ccc3ncnc-3c2)cc1 [Example 1, N-Methyl-N-4-(5H-imidazo[4,5-c]pyridylmethyl)phenylsulphonyl-L-leucine ethyl ester] | 5 nM |
| CCOC(=O)[C@H](CC(C)C)N(CC(=O)OC(C)(C)C)S(=O)(=O)c1ccc(Cn2ccc3nc(C)nc-3c2)cc1 [Example 8, N-t-Butyloxycarbonylmethyl-N-4-(5H-2-methylimidazo[4,5-c]pyridylmethyl)phenylsulphonyl-L-leucine ethyl ester] | 15 nM |
| Cc1nc2ccn(Cc3ccc(S(=O)(=O)N(C)[C@H](CO[Si](c4ccccc4)(c4ccccc4)C(C)(C)C)CC(C)C)cc3)cc-2n1 [Example 21, N-Methyl-N-4-(5H-2-methylimidazo[4,5-c]pyridylmethyl)phenylsulphonyl-L-leucinyl t-butyldiphenylsilyl ether] | 20 nM |
